For orientation: Ki means the dissociation constant of the complex between target and ligand, obtained from inhibition or displacement. A word on the EC50: it is the concentration that produces a half-maximal response.

No end group written: not given here.

Test [1] concerns vector-transfected cells. The test is described as follows: Intracellular Ca2+ release in vector (mock)-transfected COS-7 cells. The class given is cell-based. The conditions noted are these: mock COS-7 cells. As to the method: A typical protocol for the DEAE-dextran method as applied to COS-7 and HEK293 cells is described as follows. Cells to be used for transfection are split 24 hours prior to the transfection to provide flasks which are 70–80% confluent at the time of transfection. Briefly, 8 μg of receptor DNA plus 8 μg of any additional DNA needed (e.g. Gα protein expression vector, reporter construct, antibiotic resistance marker, mock vector, etc.) are added to 9 ml of complete DMEM plus DEAE-dextran mixture (10 mg/ml in PBS). Cells plated into a T225 flask (sub-confluent) are washed once with PBS and the DNA mixture is added to each flask. The cells are allowed to incubate for 30 minutes at 37° C., 5% CO2. Following the incubation, 36 ml of complete DMEM with 80 μM chloroquine is added to each flask and allowed to incubate an additional 3 hours. The medium is then aspirated and 24 ml of complete medium containing 10% DMSO for exactly 2 minutes and then aspirated. […]
The compounds of interest are diluted in wash buffer (Hank's BSS (without phenol red), 20 mM HEPES, 2.5 mM probenecid) to a 4× final concentration and aliquoted into a clear v-bottom plate (Nunc). […] Compounds are added to the cell plates and responses are measured using the FLIPR™ instrument. The data are then collected and analyzed using the FLIPR™ software and Graphpad Prism. […]

Test [2] deals with T1, SNORF72 (Homo sapiens, UniProt Q9GZQ4, A395T).
T1 construct: expressed in transfected cells; host or cells: COS-7 (transient, DEAE-dextran)
The test is described as follows: Displacement of [125I]rat NMU-23 binding in SNORF72-transfected COS-7 membranes. Particulars: binding affinity, SNORF72-transfected COS-7 cells (Table 1A); read-out: SNORF72 Avg Ki. The procedure: The specifics of preparing such cell membranes may in some cases be determined by the nature of the ensuing assay but typically involve harvesting whole cells and disrupting the cell pellet by sonication in ice cold buffer (e.g. 20 mM Tris HCl, mM EDTA, pH 7.4 at 4° C.). The resulting crude cell lysate is cleared of cell debris by low speed centrifugation at 200×g for 5 min at 4° C. The cleared supernatant is then centrifuged at 40,000×g for 20 min at 4° C., and the resulting membrane pellet is washed by suspending in ice cold buffer and repeating the high speed centrifugation step. The final washed membrane pellet is resuspended in assay buffer. Protein concentrations are determined by the method of Bradford (1976) using bovine serum albumin as a standard. The membranes may be used immediately or frozen for later use.
Radioligand binding assays were performed by diluting membranes prepared from cells expressing the receptor in 50 mM Tris buffer (pH=7.4 at 0° C.) containing 0.1% bovine serum albumin (Sigma), aprotinin (0.005 mg/ml, Boehringer Mannheim) and bestatin (0.1 mM, Sigma) as protease inhibitors. The final protein concentration in the assay was 12–40 μg/ml. […] The bound ligand was separated from free by filtration through GF/B filters presoaked in 0.5% polyethyleneimine (PEI), using a Tomtec (Wallac) vacuum filtration device. After addition of Ready Safe (Beckman) scintillation fluid, bound radioactivity was quantitated using a Trilux (Wallac) scintillation counter (approximately 40% counting efficiency of bound counts). Data was fit to non-linear curves using GraphPad Prism.
In this manner, agonist or antagonist compounds that bind to the receptor may be identified as they inhibit the binding of the labeled ligand to the membrane protein of cells expressing the said receptor. Non-specific binding was defined as the amount of radioactivity remaining after incubation of membrane protein in the presence of 100 nM of the unlabeled peptide corresponding to the radioligand used. In equilibrium saturation binding assays membrane preparations or intact cells transfected with the receptor are incubated in the presence of increasing concentrations of the labeled compound to determine the binding affinity of the labeled ligand.
(Displacement assays read how much labelled ligand stays bound in the presence of the test substance.)

The target in test [3] is T2, SNORF62 (Homo sapiens, UniProt Q9HB89).
T2 sequence (Q9HB89 1-426): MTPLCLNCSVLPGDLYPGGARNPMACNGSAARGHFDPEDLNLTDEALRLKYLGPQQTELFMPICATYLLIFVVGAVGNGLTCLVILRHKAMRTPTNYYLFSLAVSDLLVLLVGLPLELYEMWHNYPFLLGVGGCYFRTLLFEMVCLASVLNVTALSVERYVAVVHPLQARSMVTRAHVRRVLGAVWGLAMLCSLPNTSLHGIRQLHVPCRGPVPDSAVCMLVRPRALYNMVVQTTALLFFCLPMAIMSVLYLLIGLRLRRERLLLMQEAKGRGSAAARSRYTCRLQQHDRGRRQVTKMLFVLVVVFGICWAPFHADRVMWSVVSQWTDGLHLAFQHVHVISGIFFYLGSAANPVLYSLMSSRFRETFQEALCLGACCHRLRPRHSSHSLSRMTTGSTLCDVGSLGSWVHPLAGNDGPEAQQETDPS
The test is described as follows: Intracellular Ca2+ release (FLIPR) in SNORF62-transfected COS-7 cells. Also noted: The SNORF62 cDNA codes for a protein of 426 amino acids; expressed in transfected cells; host or cells: COS-7 (transient, DEAE-dextran). The test is classed as cell-based.

As to “FRVDEEFQSPFASQSRGYFLFRPRN-NH2 [human NMU-25, FRVDEEFQSPFASQSRGYFLFRPRN—NH2]”, in test [1], the “effect on intracellular Ca2+ release in vector-transfected cells” value is “no significant effect”. For the same substance, the Ki in test [2] turned out to be 3 nM. Also, the “Ca2+ release response following pretreatment with pertussis toxin” value in test [3] (pertussis toxin 100 ng/ml for 18-20 hours, n=2, data not shown) is given as “present”. The substance also yielded an EC50 in test [3] (stimulation of Ca2+ release, SNORF62-transfected COS-7 cells, n = 2-7 (Table 1A)) of 4 ± 1.3 nM.

Values taken from patent publication US7029857B1, “Processes for obtaining compounds employing SNORF72 receptors” (H. Lundbeck A/S, priority 1999, dated 2006).
